Source: article PMC9388626, “STUB1 is an intracellular checkpoint for interferon gamma sensing” (Scientific Reports, 2022)

Columns and labels:
B16-F10 cells [1] = test: Flow cytometry, surface IFNGR1 on CRISPR-edited cells; assay type: cell-based, murine; details: for Surface IFNGR1 relative to Parental (Fig. 2c): Parental = 1.00
Protocol: (§1) Parental, CRISPR-edited or biologic-overexpressed tumour cells were seeded in a cell density of 60,000 (B16-F10), 150,000 (CT26), 100,000 (A375), or 200,000 (A549) per well in 12-well plate filled with 0.8 ml culture media + 10% FBS. After overnight incubation, the culture media were replaced with 1 ml fresh media supplemented with 10% FBS and the designated concentration of the recombinant mouse IFNγ (R&D Systems, #485-MI-100) or recombinant human IFNγ (R&D Systems, #285-IF-100). The cells were stimulated with the cytokine for 24 h before they were harvested by trypsinization for flow cytometry, western blot, or qPCR analysis (6 h treatment).
(§2) Cells were dissociated from the wells with 0.25% trypsin (Gibco, 25200056). After rinsing with 0.5 ml PBS, each sample was stained with the LIVE/DEAD Fixable Aqua dead cell staining solution (Life Technologies, L34957) in 100 µl PBS (1:1000 dilution) for 15 min at 4 °C. After rinsing with 2 × 0.5 ml PBS, each sample was stained with the corresponding primary antibody-dye conjugates diluted in 100 µl Pharmingen stain buffer (BD Biosciences, #554657). After 1 h staining at 4 °C, the cells were rinsed with 2 × 2 ml Pharmingen stain buffer and fixed with 4.21% (w/w) formaldehyde (BD Biosciences, #554655). Cells were analyzed on LSRFortessa X-20 (BD Biosciences) with appropiate fluorescence compensation. The data were analyzed using FlowJo. Cells were gated based on FSC and SSC. Single cells were selected using FSC-A and FSC-H and viable cells were selected using LIVE/DEAD signal. Primary antibodies used were: H-2K^b/H-2D^b (FITC, Biolegend, #114606, 1:50 dilution), HLA-A,B,C (FITC, Biolegend, #311404, 1:100 dilution), mouse IFNGR1 (PE, Invitrogen, #12-1191-82, 1:50 dilution), human IFNGR1 (PE, Miltenyi, #130-125-851, 1:50 dilution), mouse IL1R1 (APC, Biolegend, #113509, 1:20 dilution), mouse IL6R (APC, Biolegend, #115812, 1:20 dilution), mouse IFNAR1 (APC, Biolegend, #127314, 1:20 dilution), and mouse GP130 (PE, Biolegend, #149404, 1:100 dilution).

B16-F10 cells [2] = test: Flow cytometry, surface MHC-I on CRISPR-edited cells with IFNγ; assay type: cell-based, murine; details: for Surface MHC-I relative to Parental (Fig. 1c): Parental = 1.00
Protocol: as §1, with “The cells were stimulated with the cytokine for 24 h before they were harvested by trypsinization for flow cytometry, western blot, or qPCR analysis (6 h treatment).” left out
as §2

Substance: gStub1 #1 (guide GCATTGCTAAGAAGAAGCGC; chemistry not given here)
- Surface IFNGR1 (Fig. 2b) (B16-F10 cells [1]; IFNg 0.01 ng/ml, replicate 1): 4507
- Surface IFNGR1 relative to Parental (Fig. 2c) (B16-F10 cells [1]; IFNg 0.01 ng/ml, replicate 1): 2.35
- Surface IFNGR1 (Fig. 2b) (B16-F10 cells [1]; IFNg 0.01 ng/ml, replicate 2): 4382
- Surface IFNGR1 relative to Parental (Fig. 2c) (B16-F10 cells [1]; IFNg 0.01 ng/ml, replicate 2): 2.34
- Surface IFNGR1 (Fig. 2b) (B16-F10 cells [1]; IFNg 0.01 ng/ml, replicate 3): 3988
- Surface IFNGR1 relative to Parental (Fig. 2c) (B16-F10 cells [1]; IFNg 0.01 ng/ml, replicate 3): 2.16
- Surface IFNGR1 (Fig. 2b) (B16-F10 cells [1]; IFNg 0.03 ng/ml, replicate 1): 4026
- Surface IFNGR1 relative to Parental (Fig. 2c) (B16-F10 cells [1]; IFNg 0.03 ng/ml, replicate 1): 1.83
- Surface IFNGR1 (Fig. 2b) (B16-F10 cells [1]; IFNg 0.03 ng/ml, replicate 2): 3680
- Surface IFNGR1 relative to Parental (Fig. 2c) (B16-F10 cells [1]; IFNg 0.03 ng/ml, replicate 2): 1.69
- Surface IFNGR1 (Fig. 2b) (B16-F10 cells [1]; IFNg 0.03 ng/ml, replicate 3): 3566
- Surface IFNGR1 relative to Parental (Fig. 2c) (B16-F10 cells [1]; IFNg 0.03 ng/ml, replicate 3): 2.17
- Surface IFNGR1 (Fig. 2b) (B16-F10 cells [1]; IFNg 0.10 ng/ml, replicate 1): 4027
- Surface IFNGR1 relative to Parental (Fig. 2c) (B16-F10 cells [1]; IFNg 0.10 ng/ml, replicate 1): 2.07
- Surface IFNGR1 (Fig. 2b) (B16-F10 cells [1]; IFNg 0.10 ng/ml, replicate 2): 3862
- Surface IFNGR1 relative to Parental (Fig. 2c) (B16-F10 cells [1]; IFNg 0.10 ng/ml, replicate 2): 2.28
- Surface IFNGR1 (Fig. 2b) (B16-F10 cells [1]; IFNg 0.10 ng/ml, replicate 3): 3601
- Surface IFNGR1 relative to Parental (Fig. 2c) (B16-F10 cells [1]; IFNg 0.10 ng/ml, replicate 3): 2.06
- Surface IFNGR1 (Fig. 2b) (B16-F10 cells [1]; IFNg 0.30 ng/ml, replicate 1): 3595
- Surface IFNGR1 relative to Parental (Fig. 2c) (B16-F10 cells [1]; IFNg 0.30 ng/ml, replicate 1): 1.70
- Surface IFNGR1 (Fig. 2b) (B16-F10 cells [1]; IFNg 0.30 ng/ml, replicate 2): 3609
- Surface IFNGR1 relative to Parental (Fig. 2c) (B16-F10 cells [1]; IFNg 0.30 ng/ml, replicate 2): 2.03
- Surface IFNGR1 (Fig. 2b) (B16-F10 cells [1]; IFNg 0.30 ng/ml, replicate 3): 3263
- Surface IFNGR1 relative to Parental (Fig. 2c) (B16-F10 cells [1]; IFNg 0.30 ng/ml, replicate 3): 1.89
- Surface IFNGR1 (Fig. 2b) (B16-F10 cells [1]; IFNg 1.00 ng/ml, replicate 1): 3107
- Surface IFNGR1 relative to Parental (Fig. 2c) (B16-F10 cells [1]; IFNg 1.00 ng/ml, replicate 1): 1.68
- Surface IFNGR1 (Fig. 2b) (B16-F10 cells [1]; IFNg 1.00 ng/ml, replicate 2): 3061
- Surface IFNGR1 relative to Parental (Fig. 2c) (B16-F10 cells [1]; IFNg 1.00 ng/ml, replicate 2): 1.74
- Surface IFNGR1 (Fig. 2b) (B16-F10 cells [1]; IFNg 1.00 ng/ml, replicate 3): 2676
- Surface IFNGR1 relative to Parental (Fig. 2c) (B16-F10 cells [1]; IFNg 1.00 ng/ml, replicate 3): 1.66
- Surface IFNGR1 (Fig. 2b) (B16-F10 cells [1]; IFNg Nil, replicate 1): 4564
- Surface IFNGR1 relative to Parental (Fig. 2c) (B16-F10 cells [1]; IFNg Nil, replicate 1): 2.27
- Surface IFNGR1 (Fig. 2b) (B16-F10 cells [1]; IFNg Nil, replicate 2): 4378
- Surface IFNGR1 relative to Parental (Fig. 2c) (B16-F10 cells [1]; IFNg Nil, replicate 2): 2.36
- Surface IFNGR1 (Fig. 2b) (B16-F10 cells [1]; IFNg Nil, replicate 3): 4200
- Surface IFNGR1 relative to Parental (Fig. 2c) (B16-F10 cells [1]; IFNg Nil, replicate 3): 2.25
- Surface MHC-I (Fig. 1b) (B16-F10 cells [2]; IFNg 0.01 ng/ml, replicate 1): 389
- Surface MHC-I relative to Parental (Fig. 1c) (B16-F10 cells [2]; IFNg 0.01 ng/ml, replicate 1): 1.67
- Surface MHC-I (Fig. 1b) (B16-F10 cells [2]; IFNg 0.01 ng/ml, replicate 2): 629
- Surface MHC-I relative to Parental (Fig. 1c) (B16-F10 cells [2]; IFNg 0.01 ng/ml, replicate 2): 1.88
- Surface MHC-I (Fig. 1b) (B16-F10 cells [2]; IFNg 0.01 ng/ml, replicate 3): 890
- Surface MHC-I relative to Parental (Fig. 1c) (B16-F10 cells [2]; IFNg 0.01 ng/ml, replicate 3): 2.53
- Surface MHC-I (Fig. 1b) (B16-F10 cells [2]; IFNg 0.01 ng/ml, replicate 4): 1203
- Surface MHC-I relative to Parental (Fig. 1c) (B16-F10 cells [2]; IFNg 0.01 ng/ml, replicate 4): 4.12
- Surface MHC-I (Fig. 1b) (B16-F10 cells [2]; IFNg 0.03 ng/ml, replicate 1): 1830
- Surface MHC-I relative to Parental (Fig. 1c) (B16-F10 cells [2]; IFNg 0.03 ng/ml, replicate 1): 6.85
- Surface MHC-I (Fig. 1b) (B16-F10 cells [2]; IFNg 0.03 ng/ml, replicate 2): 1489
- Surface MHC-I relative to Parental (Fig. 1c) (B16-F10 cells [2]; IFNg 0.03 ng/ml, replicate 2): 3.84
- Surface MHC-I (Fig. 1b) (B16-F10 cells [2]; IFNg 0.03 ng/ml, replicate 3): 2317
- Surface MHC-I relative to Parental (Fig. 1c) (B16-F10 cells [2]; IFNg 0.03 ng/ml, replicate 3): 4.36
- Surface MHC-I (Fig. 1b) (B16-F10 cells [2]; IFNg 0.03 ng/ml, replicate 4): 3040
- Surface MHC-I relative to Parental (Fig. 1c) (B16-F10 cells [2]; IFNg 0.03 ng/ml, replicate 4): 6.59
- Surface MHC-I (Fig. 1b) (B16-F10 cells [2]; IFNg 0.10 ng/ml, replicate 1): 1622
- Surface MHC-I relative to Parental (Fig. 1c) (B16-F10 cells [2]; IFNg 0.10 ng/ml, replicate 1): 4.52
- Surface MHC-I (Fig. 1b) (B16-F10 cells [2]; IFNg 0.10 ng/ml, replicate 2): 2825
- Surface MHC-I relative to Parental (Fig. 1c) (B16-F10 cells [2]; IFNg 0.10 ng/ml, replicate 2): 4.07
- Surface MHC-I (Fig. 1b) (B16-F10 cells [2]; IFNg 0.10 ng/ml, replicate 3): 4165
- Surface MHC-I relative to Parental (Fig. 1c) (B16-F10 cells [2]; IFNg 0.10 ng/ml, replicate 3): 3.06
- Surface MHC-I (Fig. 1b) (B16-F10 cells [2]; IFNg 0.10 ng/ml, replicate 4): 5343
- Surface MHC-I relative to Parental (Fig. 1c) (B16-F10 cells [2]; IFNg 0.10 ng/ml, replicate 4): 3.53
- Surface MHC-I (Fig. 1b) (B16-F10 cells [2]; IFNg 0.30 ng/ml, replicate 1): 3870
- Surface MHC-I relative to Parental (Fig. 1c) (B16-F10 cells [2]; IFNg 0.30 ng/ml, replicate 1): 4.44
- Surface MHC-I (Fig. 1b) (B16-F10 cells [2]; IFNg 0.30 ng/ml, replicate 2): 3946
- Surface MHC-I relative to Parental (Fig. 1c) (B16-F10 cells [2]; IFNg 0.30 ng/ml, replicate 2): 3.12
- Surface MHC-I (Fig. 1b) (B16-F10 cells [2]; IFNg 0.30 ng/ml, replicate 3): 5512
- Surface MHC-I relative to Parental (Fig. 1c) (B16-F10 cells [2]; IFNg 0.30 ng/ml, replicate 3): 2.33
- Surface MHC-I (Fig. 1b) (B16-F10 cells [2]; IFNg 0.30 ng/ml, replicate 4): 7772
- Surface MHC-I relative to Parental (Fig. 1c) (B16-F10 cells [2]; IFNg 0.30 ng/ml, replicate 4): 2.83
- Surface MHC-I (Fig. 1b) (B16-F10 cells [2]; IFNg 1.00 ng/ml, replicate 1): 6610
- Surface MHC-I relative to Parental (Fig. 1c) (B16-F10 cells [2]; IFNg 1.00 ng/ml, replicate 1): 2.73
- Surface MHC-I (Fig. 1b) (B16-F10 cells [2]; IFNg 1.00 ng/ml, replicate 2): 4959
- Surface MHC-I relative to Parental (Fig. 1c) (B16-F10 cells [2]; IFNg 1.00 ng/ml, replicate 2): 2.67
- Surface MHC-I (Fig. 1b) (B16-F10 cells [2]; IFNg 1.00 ng/ml, replicate 3): 6900
- Surface MHC-I relative to Parental (Fig. 1c) (B16-F10 cells [2]; IFNg 1.00 ng/ml, replicate 3): 2.19
- Surface MHC-I (Fig. 1b) (B16-F10 cells [2]; IFNg 1.00 ng/ml, replicate 4): 9888
- Surface MHC-I relative to Parental (Fig. 1c) (B16-F10 cells [2]; IFNg 1.00 ng/ml, replicate 4): 2.56
- Surface MHC-I (Fig. 1b) (B16-F10 cells [2]; IFNg Nil, replicate 1): 267
- Surface MHC-I relative to Parental (Fig. 1c) (B16-F10 cells [2]; IFNg Nil, replicate 1): 0.97
- Surface MHC-I (Fig. 1b) (B16-F10 cells [2]; IFNg Nil, replicate 2): 322
- Surface MHC-I relative to Parental (Fig. 1c) (B16-F10 cells [2]; IFNg Nil, replicate 2): 1.05
- Surface MHC-I (Fig. 1b) (B16-F10 cells [2]; IFNg Nil, replicate 3): 345
- Surface MHC-I relative to Parental (Fig. 1c) (B16-F10 cells [2]; IFNg Nil, replicate 3): 1.07
- Surface MHC-I (Fig. 1b) (B16-F10 cells [2]; IFNg Nil, replicate 4): 296
- Surface MHC-I relative to Parental (Fig. 1c) (B16-F10 cells [2]; IFNg Nil, replicate 4): 1.15
